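How tested: cells in 96-well plates exposed to compound for 48 hours at five concentrations. At the GI50, growth is halved.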 The source made the active and inactive calls. Rule as the data show it: active = GI50 up to about 1.1 µM and inactive = higher.
Columns and labels:
Experiment in all cases: NCI anticancer screen, dose series, 48 h
M14 = test system: M14
MDA-MB-231 = test system: MDA-MB-231
SN12C = test system: SN12C
LOX IMVI = test system: LOX IMVI
NCI/ADR-RES = test system: NCI/ADR-RES
HL-60 = test system: HL-60
EKVX = test system: EKVX
A498 = test system: A498
DU-145 = test system: DU-145
NCI-H522 = test system: NCI-H522
UACC-62 = test system: UACC-62
KM12 = test system: KM12
SF-268 = test system: SF-268
CCRF-CEM = test system: CCRF-CEM
NCI-H460 = test system: NCI-H460
SF-539 = test system: SF-539
K562 = test system: K562
A549 = test system: A549
U-251 = test system: U-251
OVCAR-5 = test system: OVCAR-5
NCI-H226 = test system: NCI-H226
MCF7 = test system: MCF7
SW-620 = test system: SW-620
SF-295 = test system: SF-295
SK-MEL-2 = test system: SK-MEL-2
PC-3 = test system: PC-3
MOLT-4 = test system: MOLT-4
CAKI-1 = test system: CAKI-1
MDA-MB-435 = test system: MDA-MB-435
HCT-15 = test system: HCT-15
OVCAR-8 = test system: OVCAR-8
HCT-116 = test system: HCT-116
NCI-H23 = test system: NCI-H23
ACHN = test system: ACHN
TK-10 = test system: TK-10
UACC-257 = test system: UACC-257
OVCAR-4 = test system: OVCAR-4
SK-MEL-5 = test system: SK-MEL-5
HOP-92 = test system: HOP-92
RXF 393 = test system: RXF 393
SK-MEL-28 = test system: SK-MEL-28
SR = test system: SR
SNB-19 = test system: SNB-19
Hs-578T = test system: Hs-578T
IGROV-1 = test system: IGROV-1
786-0 = test system: 786-0
SNB-75 = test system: SNB-75
COLO 205 = test system: COLO 205
MDA-N = test system: MDA-N
Malme-3M = test system: Malme-3M
UO-31 = test system: UO-31
HT-29 = test system: HT-29
RPMI-8226 = test system: RPMI-8226
T47D = test system: T47D
OVCAR-3 = test system: OVCAR-3
HCC 2998 = test system: HCC 2998
HOP-62 = test system: HOP-62

For `C[C@]12CCC(=O)C=C1CC[C@@H]1[C@@H]2CC[C@]2(C)C(=O)[C@H](n3ccnc3)C[C@@H]12`, the GI50 (M14) was > 100 µM (inactive), the GI50 (MDA-MB-231) was > 100 µM (inactive) and the GI50 (SN12C) was > 100 µM (inactive). The GI50 (LOX IMVI) was > 100 µM (inactive), the GI50 (NCI/ADR-RES) was > 100 µM (inactive) and the GI50 (HL-60) was 21.9 µM (inactive). For the same molecule, the GI50 (EKVX) was > 100 µM (inactive), the GI50 (A498) was > 100 µM (inactive) and the GI50 (DU-145) was > 100 µM (inactive). The GI50 (NCI-H522) was > 100 µM (inactive), the GI50 (UACC-62) was > 100 µM (inactive) and the GI50 (KM12) was > 100 µM (inactive). For the same molecule, the GI50 (SF-268) was > 100 µM (inactive), the GI50 (CCRF-CEM) was 58.6 µM (inactive) and the GI50 (NCI-H460) was > 100 µM (inactive). For the same molecule, the GI50 (SF-539) was > 100 µM (inactive), the GI50 (K562) was 75.3 µM (inactive) and the GI50 (A549) was > 100 µM (inactive). The GI50 (U-251) was > 100 µM (inactive), the GI50 (OVCAR-5) was > 100 µM (inactive) and the GI50 (NCI-H226) was > 100 µM (inactive). The GI50 (MCF7) was > 100 µM (inactive), the GI50 (SW-620) was > 100 µM (inactive) and the GI50 (SF-295) was > 100 µM (inactive). The GI50 (SK-MEL-2) was > 100 µM (inactive), the GI50 (PC-3) was > 100 µM (inactive) and the GI50 (MOLT-4) was 35.2 µM (inactive). For the same molecule, the GI50 (CAKI-1) was > 100 µM (inactive), the GI50 (MDA-MB-435) was > 100 µM (inactive) and the GI50 (HCT-15) was greater than 100 µM. For the same molecule, the GI50 (OVCAR-8) was > 100 µM (inactive), the GI50 (HCT-116) was > 100 µM (inactive) and the GI50 (NCI-H23) was > 100 µM (inactive). The GI50 (ACHN) was > 100 µM (inactive), the GI50 (TK-10) was > 100 µM (inactive) and the GI50 (UACC-257) was > 100 µM (inactive). For the same molecule, the GI50 (OVCAR-4) was > 100 µM (inactive), the GI50 (SK-MEL-5) was 63.1 µM (inactive) and the GI50 (HOP-92) was > 100 µM (inactive). For the same molecule, the GI50 (RXF 393) was > 100 µM (inactive), the GI50 (SK-MEL-28) was > 100 µM (inactive) and the GI50 (SR) was 74.1 µM (inactive). The GI50 (SNB-19) was > 100 µM (inactive), the GI50 (Hs-578T) was > 100 µM (inactive) and the GI50 (IGROV-1) was > 100 µM (inactive). For the same molecule, the GI50 (786-0) was > 100 µM (inactive), the GI50 (SNB-75) was > 100 µM (inactive) and the GI50 (COLO 205) was > 100 µM (inactive). For the same molecule, the GI50 (MDA-N) was > 100 µM (inactive), the GI50 (Malme-3M) was > 100 µM (inactive) and the GI50 (UO-31) was > 100 µM (inactive). The GI50 (HT-29) was 27.4 µM (inactive) and the GI50 (RPMI-8226) was > 100 µM (inactive).
For `CC(C)=CC(=O)O[C@H]1C(=O)O[C@@H]2C[C@H]3[C@H](C)C(=O)C(O[C@@H]4O[C@H](CO)[C@@H](O)[C@H](O)[C@H]4O)=C[C@]3(C)[C@H]3[C@@H](O)[C@H](O)[C@]4(C(=O)O)OC[C@]32[C@@H]14` [BRUCEOSIDE D], the GI50 (A498) was 79.1 µM (inactive), the GI50 (UACC-62) was 97.5 µM (inactive) and the GI50 (OVCAR-5) was 84.5 µM (inactive). The GI50 (SW-620) was 79.4 µM (inactive), the GI50 (PC-3) was 71 µM (inactive) and the GI50 (CAKI-1) was 90.8 µM (inactive). The GI50 (MDA-MB-435) was 66.5 µM (inactive), the GI50 (NCI-H23) was 56.1 µM (inactive) and the GI50 (TK-10) was 71.9 µM (inactive). The GI50 (T47D) was 51.9 µM (inactive), the GI50 (UACC-257) was 98.9 µM (inactive) and the GI50 (IGROV-1) was 54 µM (inactive). For the same molecule, the GI50 (786-0) was 96.6 µM (inactive), the GI50 (SNB-75) was 86.1 µM (inactive) and the GI50 (COLO 205) was 65.8 µM (inactive). For the same molecule, the GI50 (MDA-N) was 66.2 µM (inactive).
`CCOC(=O)C1C(c2ccc3c(c2)OCO3)c2c(n[nH]c2O)CC1(C)O` (stereo not drawn) was tested, and the GI50 (M14) was > 100 µM (inactive), the GI50 (MDA-MB-231) was > 100 µM (inactive) and the GI50 (SN12C) was > 100 µM (inactive). The GI50 (LOX IMVI) was > 100 µM (inactive), the GI50 (NCI/ADR-RES) was > 100 µM (inactive) and the GI50 (OVCAR-3) was > 100 µM (inactive). For the same molecule, the GI50 (HL-60) was > 100 µM (inactive), the GI50 (HCC 2998) was > 100 µM (inactive) and the GI50 (EKVX) was > 100 µM (inactive). For the same molecule, the GI50 (A498) was > 100 µM (inactive), the GI50 (DU-145) was > 100 µM (inactive) and the GI50 (NCI-H522) was > 100 µM (inactive). The GI50 (UACC-62) was > 100 µM (inactive), the GI50 (KM12) was > 100 µM (inactive) and the GI50 (SF-268) was > 100 µM (inactive). The GI50 (CCRF-CEM) was > 100 µM (inactive), the GI50 (NCI-H460) was > 100 µM (inactive) and the GI50 (SF-539) was > 100 µM (inactive). The GI50 (A549) was > 100 µM (inactive), the GI50 (U-251) was > 100 µM (inactive) and the GI50 (OVCAR-5) was > 100 µM (inactive). For the same molecule, the GI50 (HOP-62) was > 100 µM (inactive), the GI50 (MCF7) was > 100 µM (inactive) and the GI50 (SW-620) was > 100 µM (inactive). For the same molecule, the GI50 (SF-295) was > 100 µM (inactive), the GI50 (SK-MEL-2) was > 100 µM (inactive) and the GI50 (PC-3) was > 100 µM (inactive). For the same molecule, the GI50 (MOLT-4) was > 100 µM (inactive), the GI50 (CAKI-1) was > 100 µM (inactive) and the GI50 (MDA-MB-435) was > 100 µM (inactive). For the same molecule, the GI50 (HCT-15) was greater than 100 µM, the GI50 (OVCAR-8) was > 100 µM (inactive) and the GI50 (HCT-116) was > 100 µM (inactive). The GI50 (NCI-H23) was > 100 µM (inactive), the GI50 (ACHN) was > 100 µM (inactive) and the GI50 (TK-10) was > 100 µM (inactive). For the same molecule, the GI50 (T47D) was > 100 µM (inactive), the GI50 (UACC-257) was > 100 µM (inactive) and the GI50 (OVCAR-4) was > 100 µM (inactive). The GI50 (SK-MEL-5) was > 100 µM (inactive), the GI50 (HOP-92) was > 100 µM (inactive) and the GI50 (SK-MEL-28) was > 100 µM (inactive). For the same molecule, the GI50 (SR) was > 100 µM (inactive), the GI50 (SNB-19) was > 100 µM (inactive) and the GI50 (Hs-578T) was > 100 µM (inactive). The GI50 (IGROV-1) was > 100 µM (inactive), the GI50 (786-0) was > 100 µM (inactive) and the GI50 (SNB-75) was > 100 µM (inactive). For the same molecule, the GI50 (COLO 205) was > 100 µM (inactive), the GI50 (MDA-N) was > 100 µM (inactive) and the GI50 (Malme-3M) was 56.1 µM (inactive). For the same molecule, the GI50 (UO-31) was > 100 µM (inactive), the GI50 (HT-29) was > 100 µM (inactive) and the GI50 (RPMI-8226) was > 100 µM (inactive).
With `COc1ccc(C[C@H]2COC(=O)[C@@H]2Cc2ccc(O)cc2)cc1OC` the GI50 (M14) was > 100 µM (inactive), the GI50 (LOX IMVI) was > 100 µM (inactive) and the GI50 (NCI/ADR-RES) was > 100 µM (inactive). The GI50 (OVCAR-3) was > 100 µM (inactive), the GI50 (EKVX) was > 100 µM (inactive) and the GI50 (A498) was > 100 µM (inactive). For the same molecule, the GI50 (DU-145) was > 100 µM (inactive), the GI50 (CCRF-CEM) was > 100 µM (inactive) and the GI50 (NCI-H460) was > 100 µM (inactive). The GI50 (K562) was > 100 µM (inactive), the GI50 (A549) was > 10 µM (inactive) and the GI50 (OVCAR-5) was > 100 µM (inactive). The GI50 (HOP-62) was > 100 µM (inactive), the GI50 (NCI-H226) was > 100 µM (inactive) and the GI50 (SW-620) was > 100 µM (inactive). For the same molecule, the GI50 (SF-295) was > 100 µM (inactive), the GI50 (MOLT-4) was > 100 µM (inactive) and the GI50 (OVCAR-8) was > 100 µM (inactive). The GI50 (HCT-116) was > 100 µM (inactive), the GI50 (NCI-H23) was > 100 µM (inactive) and the GI50 (ACHN) was > 100 µM (inactive). For the same molecule, the GI50 (TK-10) was > 100 µM (inactive), the GI50 (UACC-257) was > 100 µM (inactive) and the GI50 (OVCAR-4) was > 100 µM (inactive). For the same molecule, the GI50 (SK-MEL-5) was > 100 µM (inactive), the GI50 (HOP-92) was > 100 µM (inactive) and the GI50 (SK-MEL-28) was > 100 µM (inactive). For the same molecule, the GI50 (SR) was > 100 µM (inactive), the GI50 (SNB-19) was > 100 µM (inactive) and the GI50 (Hs-578T) was > 100 µM (inactive). For the same molecule, the GI50 (IGROV-1) was > 100 µM (inactive), the GI50 (786-0) was > 100 µM (inactive) and the GI50 (Malme-3M) was > 100 µM (inactive). The GI50 (HT-29) was > 100 µM (inactive) and the GI50 (RPMI-8226) was > 100 µM (inactive).

From ChEMBL document CHEMBL1201862, “PubChem BioAssay data set” (2004)
